System: adult body louse, Pediculous humanus humanus
Protocol: In this embodiment, the effectiveness of pediculicidal materials in the formulation of Example 1 is examined against the adult body louse, Pediculous humanus humanus. But this procedure can be used to test the effectiveness of a composition against the head louse, fleas, ticks, or any ectoparasite. In the following description, “morbid” means that the louse is unable to move towards heat 1 h after treatment. The parasite is sick but not necessarily dying, and may recover to resume normal behavior within 24 hours. By “moribund” is meant the parasite is unable to move towards heat (and therefore food) 24 hours after treatment and is dying.
Four replicates of 25 lice each, plus five control replicates were examined. A plastic or glass vial, screened at the bottom with 20-mesh was used as the dipping vessel. A plunger, made from a plastic rod, and a circular screen was fitted inside the vial.
25 adult lice of mixed sexes were placed in the bottom of a test container. A screened plunger was inserted to keep the lice from floating to the surface. The pediculicide material to be tested was placed in a 100-ml beaker and the beaker introduced into a waterbath maintained at 32° C. The test container was placed into the pediculicide in the 100-ml beaker and the lice kept under the pediculicide for 1, 4 or 10 minutes. The test container was removed at end of the desired dipping period. […]

## CCCCCCCCCCCCCC(=O)OC(C)C [isopropyl myristate, 1-methylethyltetradecanoate]
  lice killed (mortality) after 1 hour: about 82%
  mortality of lice after 24 hours: 100%

Source: patent US8815270B2, “Methods and compositions for treating ectoparasite infestation” (Piedmont Pharmaceuticals, LLC, priority 2002, dated 2014)
